Measurements: US20230331739A1, “INDOLO HEPTAMYL OXIME ANALOG CRYSTAL AS PARP INHIBITOR AND METHOD FOR PREPARING SAME” (CHIA TAI TIANQING PHARMACEUTICAL GROUP CO., LTD., priority 2020, published 2023)

What was measured:
[1] = test system: PARylation in Lovo cells; test: PARylation inhibition in Lovo cells; assay type: cell-based; conditions: Homo sapiens, 25 mM H2O2
Procedure: Experimental materials: test compounds, F12K medium, Lovo cells, Anti-Poly (ADP-ribose) mouse monoclonal antibody; FITC-labeled goat anti-mouse IgG; hydrogen peroxide; DAPI; PBS; methanol; acetone; Tween-20; skimmed milk powder; Envision Multimode Plate Reader.
Day One: Lovo cells were seeded on a plate at 60,000 cells/well, and then incubated overnight at 37° C./5% CO2.
1. Washing solution: Tween-20 was added to 1×PBS, and the final concentration of Tween-20 was 0.05%.
2. Blocking solution: Skimmed milk powder was added to the washing solution, and the final concentration of the skimmed milk powder was 5%.
3. Cell immobilization solution: Methanol and acetone were mixed in a ratio of 7:3.
Preparation of test compounds: Compound intermediate plate 1: The compound was diluted to final concentrations of 10 μM to 0.13 nM with DMSO and PBS, and the concentration of DMSO was 1%; Compound intermediate plate 2: The compound was diluted to final concentrations of 10 μM to 0.13 nM with DMSO and PBS containing 50 mM hydrogen peroxide, and the concentration of DMSO was 1%.
1. […]
10. […] After removal of the liquid, corresponding fluorescence values were read on Envision: FITC: 480 nm and 530 nm; DAPI: 360 nm and 460 nm. […]

[2] = Protein binding rate in plasma (equilibrium dialysis), human; assay type: in vitro ADME; conditions: 4 h dialysis
Procedure: The protein binding rates of the compound disclosed herein in plasma of human, CD-1 mice and SD rats were determined. 796 μL of blank plasma was taken from human, CD-1 mice or SD rats, and 4 μL of test compound working solution (400 μM) or warfarin working solution (400 μM) was added to achieve a final concentration of 2 μM of both the test compound and the warfarin in the plasma sample. The samples were mixed well. The final concentration of organic phase DMSO was 0.5%; 50 μL of test compound and warfarin plasma sample was pipetted into a sample receiving plate (in triplicate), and a corresponding volume of blank plasma or buffer was immediately added such that the final volume in each sample well was 100 μL. The volume ratio of plasma to dialysis buffer was 1:1. […] All samples were subjected to LC/MS analysis after protein precipitation, and the protein binding rates and the recovery rates were calculated by the following formulas: protein unbinding rate (%)=100× drug concentration passing through dialysis membrane/drug concentration not passing through dialysate; protein binding rate (%)=100−protein unbinding rate (%); recovery rate (%)=100×(drug concentration passing through dialysis membrane+drug concentration not passing through dialysate)/total drug concentration before dialysis.

[3] = Metabolic stability in liver microsomes, mouse; assay type: in vitro ADME; conditions: 1 μM, 0.5 mg/mL
Procedure: Objective: To test the metabolic stability of the test compound in liver microsomes of three species.
Procedures: 1 μM test compound and microsomes (0.5 mg/mL) were incubated at 37° C. in the presence of an NADPH regeneration system. Positive controls were testosterone ([…]), propylamine propiophenone (2D6 substrate) and diclofenac (2C9 substrate). At 37° C., positive controls were incubated with microsomes (0.5 mg/mL) in the presence of an NADPH regeneration system. The reaction was stopped by direct mixing of the sample with cold acetonitrile containing an internal standard at various time points (0, 5, 10, 20, 30 and 60 min). The compound and microsomes were incubated for 60 min in the absence of an NADPH regeneration system. One replicate (n=1) was set at each time point. The samples were analyzed by LC/MS/MS; the concentration of the compound was characterized by the ratio of the analyte peak area to the internal standard peak area.

Question: What does the source list for C[C@]1(c2ccc(-c3[nH]c4cc(F)cc5c4c3CONC5=O)cc2)CCCN1 [Compound 1]?
Answer: IC50 [1]: 19 nM; fraction unbound at 4 h, 2 μM [2]: 0.149; Residual content after 60 min of incubation [3]: 40.7%
